The values that follow come from a compilation of properties of binary mixtures (doi:10.1021/acs.jpcc.9b02625).

The structures appear in SMILES notation.

The data set in a line: xn = mol fraction of the nth substance listed. The settings on record: 303.15 K, 101 kPa.

Consider `O=S(=O)([N-]S(=O)(=O)C(F)(F)F)C(F)(F)F.[Li+]` + O=S1(=O)CCCC1, for which the electrical conductivity (x1 = 0.1) was determined as 0.274 S/m; the electrical conductivity (x1 = 0.111) worked out at 0.262 S/m; the electrical conductivity (x1 = 0.2) was 0.166 S/m; the electrical conductivity (x1 = 0.25) was 0.104 S/m; the electrical conductivity (x1 = 0.333) was 0.042 S/m. In addition, the viscosity is, setting by setting: (x1 = 0.1) 28 mPa·s; (x1 = 0.111) 31 mPa·s; (x1 = 0.2) 90.3 mPa·s; (x1 = 0.25) 175 mPa·s; (x1 = 0.333) 627 mPa·s.
